Assay results as given in patent publication US20210393549A1, “New use of R-enantiomer of adrenergic beta 2 receptor agonists for treatment of inflammatory bowel disease and its extra intestinal manifestations” (priority 2018, published 2021).

Legend:
[1] = system: DSS induced acute colitis
Source text: In one embodiment, IBD was induced in mice by add DSS into drink water for 7 days. […] (Cooper, S. et al., Clinic pathologic study of dextran sulfate sodium experimental murine colitis, Laboratory Investigation, vol. 69, no. 2, p. 238-249, 1993)
The mice were scarified at day 10th for anatomy and histology evaluations. […] Each of the above histological features was scored individually and added together which is then collectively expressed as “histological score”, for quantitative evaluation (Cooper, S. et al., above).
Male C57BL mice (8-10 weeks, 18-20 g) were grouped into control (drinking water only), DSS and DSS plus treatment groups (n=5). Acute colitis was induced by feeding mice with 2% (w/v) dextran sulfate sodium (DSS) (molecular mass 36-50 kDa) added to the drinking water given ad libitum for 7 days. At the end of seventh day, DSS was removed and animals received only drinking water for 2 days. The animals were euthanized for anatomical and histological examination at the tenth day after DSS ingestion.
R-salbutamol (R-S) (1 mg/kg, S-salbutamol (S-S) (1 mg/kg), R-terbutaline (R-T) (1 mg/kg), S-terbutaline (S-T) (1 mg/kg), R-bambuterol (10 mg/kg), S-bambuterol (S-B) (10 mg/kg), R-clenbuterol (R-C) (1 mg/kg), RS-clenbuterol (RS-C) (2 mg/kg) were administered i.g. daily, starting from the 2nd day of DSS induction for consecutive 8 days. Dexamethasone (Dex), 1 mg/kg) was used as a reference drug.
Evaluation of disease symptoms and histological changes Disease activity index (DAI): Animals were monitored daily for weight, water/food consumption, morbidity, stool consistency and fecal blood. […] The colon length was recorded as an indicator of inflammation. The entire colon was cut open longitudinally and gently flushed with sterile phosphate-buffered saline (PBS) to remove any traces of feces for pathology preparation. Colon segments were fixed in 10% neutral buffered formalin. Tissues were embedded in paraffin, sectioned, mounted on slides. H&E-stained paraffin section images were acquired. Pathological evaluation was conducted in a blinded manner.
Histological Score: the scores were given as follows: epithelium, 0=normal morphology, 1=loss of goblet cells, 2=loss of goblet cells in large areas, 3=loss of crypts, and 4=loss of crypts in large areas; and inflammation cells infiltration, 0=no infiltrate, 1=infiltrate around the crypt basis, 2=infiltrate reaching the muscularis mucosae, 3=extensive infiltration reaching the muscularis mucosae and thickening of the mucosa with abundant edema, and 4=infiltration of the submucosa. Data were presented as mean±the standard deviation (SD).

[2] = system: DSS induced sub-acute colitis; assay type: in vivo; set-up: DAI (disease active index) / FOB (fecal occult blood) / Hist score (histological score): scale not given here; Weight / Col Length (colon length): unit not given here
Source text: This invention also disclosed the used of R-salbutamol for treatment of sub acute or chronic phases of IBD. In one embodiment, IBD was induced by DSS as mentioned above, along with the treatment of R-salbutamol, at day 7th, DSS was removed and replaced with drinking water for additional 2 weeks. The disease active index (DAI) of mice was examined and evaluated periodically. The mice were scarified for pathological and histological evaluations at day of 23rd. In DSS induce IBD mice, there were significant loss of weight and fecal occult blood at day 14th and 22nd. The overall condition of colitis was severe although there was slightly improvement comparing the day 7th. The colon-rector length was significant shortened, and histological score were significant higher from control. In mice with DSS induced colitis, there were significant mononuclear leucocytes infiltration, few newly grew crypts with architectural disarray, denegation of epithelia, mucosa aberrant. There was also deep mucosal lymphocytosis, destruction of lamina propria and sometimes, transmural inflammation.
Same as example 1, except • 1), Three weeks' study with one week treatment.
DSS and all the treatment was removed and replaced with drinking water at the end of 1st week. Mice were given drink water and food ad libitum for additional 2 weeks.

[3] = system: knee joints (articular cartilage, meniscus); experiment: Damage of knee joints in DSS induced IBD mice; assay type: in vivo; conditions: compared with untreated DSS mice
Source text: In one embodiment, in DSS induced IBD mice, there was also a damage of knee joints. The articular cartilage structure became thinner and partially destroyed. The chondrocytes were degenerated, decreased and clustered. The meniscuses were damaged and lost its structural integrity. In X-ray, the layer of articular cartilage was thinner and bone structure was decreased. […] The articular cartilage and bone structure increased toward normal.

[4] = system: signal transducer and activator of transcription protein (Stat 2); experiment: Stat 2 mRNA expression in psoriasis mice; assay type: in vivo; conditions: plasma of psoriasis mice, dose-response fashion
Source text: There was enhanced expression of mRNA of Janus kinase 2 (JAK2), a non-receptor tyrosine kinase, and the signal transducer and activator of transcription protein (Stat 2) in the plasma of psoriasis mice in comparison of control, Indicating an increase of JAK2 and Stat 2 proteins. These over expression of mRNA was inhibited by R-salbutamol in a dose-response fashion. (FIG. 3 left & right)

[5] = system: acne, maliaria, hives and eczema; experiment: Topical use on acne, maliaria, hives and eczema; assay type: in vivo
[6] = acute DSS colitis, compared with untreated DSS mice
[7] = one week treatment, evaluation at 23rd day, R-S, S-S 1 mg/kg, R-B, S-B 10 mg/kg
[8] = sub-acute or chronic DSS colitis, compared with untreated DSS mice

## CC(C)(C)NC[C@H](O)c1ccc(O)c(CO)c1 [R-S, R-salbutamol]
[1]; Example 1, compared with untreated DSS mice
  colon histology (H&E), in words: greatly improved
[1]; acute DSS colitis
  body weight, in words: increased
[1]; [6]
  DAI, in words: significantly improved
  FOB, in words: reduced
  histological score, in words: significantly reduced
  length of colon-rector / shortening of large bowel, in words: shortening of large bowel was reduced
[1]; epithelium 0-4 plus infiltration 0-4, tenth day, 1 mg/kg (R-B, S-B 10 mg/kg; RS-C 2 mg/kg), mean ± SD
  Hist score (histological score): 4 ± 0.5
[1]; grade 0, 2, 4, i.g. daily 8 days, 1 mg/kg (R-B, S-B 10 mg/kg; RS-C 2 mg/kg), mean ± SD
  FOB (fecal occult blood): 0.5 ± 0.5
[1]; i.g. daily 8 days, 1 mg/kg (R-B, S-B 10 mg/kg; RS-C 2 mg/kg), mean ± SD
  Weight: 93 ± 2.8
[1]; score 0 to 12, i.g. daily 8 days from 2nd day of DSS, 1 mg/kg (R-B, S-B 10 mg/kg; RS-C 2 mg/kg), n=5
  DAI (disease active index): 4
[1]; tenth day, i.g. daily 8 days, 1 mg/kg (R-B, S-B 10 mg/kg; RS-C 2 mg/kg), mean ± SD
  Col Length (colon length): 7.7 ± 0.6
[2]; [7]
  Col Length (colon length): 8.2 ± 0.6
  DAI (disease active index): 4
  FOB (fecal occult blood): 0.5 ± 0.5
  Hist score (histological score): 3 ± 0.5
  Weight: 114 ± 0.2
[2]; [8]
  DAI, in words: significant improved
  histological index / histological score, in words: significantly ameliorated
[2]; sub-acute or chronic DSS colitis, day 14th and 22nd, compared with untreated DSS mice
  fecal occult blood, in words: significantly reduced
[3]
  damage of articular cartilage, meniscus and bone structure of knee joints: significantly ameliorated
[4]
  over expression of mRNA of Stat 2: inhibited
[5]
  symptoms of acne, maliaria, hives and eczema: significantly alleviated
